PMC10962448, “The preclinical and phase 1 development of the novel oral cathepsin C inhibitor BI 1291583” (ERJ Open Research, 2024)

Molecular target: T1, cathepsin C (CatC; dipeptidyl peptidase 1) (Homo sapiens, UniProt P53634)
T1 construct: gene CTSC
Test: surface plasmon resonance with isolated human CatC (pH […]); enzymatic IC50 […]
Assay type: binding

T1 sequence (P53634 25-134): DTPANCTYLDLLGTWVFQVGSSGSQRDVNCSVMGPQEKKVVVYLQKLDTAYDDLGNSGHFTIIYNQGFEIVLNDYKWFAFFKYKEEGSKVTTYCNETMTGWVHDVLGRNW
T1 sequence (P53634 231-394): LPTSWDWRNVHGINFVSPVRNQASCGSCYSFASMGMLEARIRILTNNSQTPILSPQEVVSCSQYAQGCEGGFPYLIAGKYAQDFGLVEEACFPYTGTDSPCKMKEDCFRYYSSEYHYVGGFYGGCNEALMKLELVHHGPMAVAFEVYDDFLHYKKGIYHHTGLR
T1 sequence (P53634 395-463): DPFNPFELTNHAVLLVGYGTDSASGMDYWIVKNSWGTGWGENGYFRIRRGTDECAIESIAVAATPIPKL

Kd: 430 pM
Substance: BI 1291583
